The subject of assay [1] is imiquimod-induced mouse psoriasis model. The experiment in a line: Imiquimod-induced mouse psoriasis model. The following applies: 10 mg/kg orally once daily for 5 days (3 to 7 days after induction); BALB/c mice; vs vehicle, P<0.05. It counts as in vivo. The procedure:
Using increase in the ear thickness as an index of exacerbation of symptoms, the effect of the cyclic amine derivative (I) or a pharmacologically acceptable salt thereof in an imiquimod-induced mouse psoriasis model was evaluated. The imiquimod-induced mouse psoriasis model was prepared by a partially modified method by Schaper et al. (The Journal of Dermatological Science, 2013, Vol. 71, No. 1, p. 29-36).
BALB/c mice (male, 7 weeks old) (Charles River Laboratories Japan, Inc.) were used at 8 to 9 weeks old after preliminary breeding. To induce psoriasis-like symptoms, 5 mg each of BESELNA CREAM 5% was applied once daily to the outside of the right and left auricles of the mice for 8 days from the day of first administration of imiquimod (hereinafter referred to as induction day) to 7 days after induction (dose of imiquimod, 0.5 mg/body/day).
A test compound at a dose of 10 mg/kg was administered to the mice once daily for 5 days from 3 days after induction to 7 days after induction. As the test compound, the compound of Example 1, the compound of Example 4, and the compound of Example 9 were used. The compound of Example 1, the compound of Example 4, and the compound of Example 9 were respectively suspended in a 0.5 w/v % methylcellulose solution and orally administered. The group in which the compound of Example 1 was administered to mice was defined as the Example-1 compound administration group, the group in which the compound of Example 4 was administered was defined as the Example-4 compound administration group, and the group in which the compound of Example 9 was administered was defined as the Example-9 compound administration group. In the vehicle administration group, a vehicle of each test compound (0.5 w/v % methylcellulose solution) was similarly administered.
The right and left ear thickness before administration of imiquimod (before induction) on the induction day and the right and left ear thickness on the 8th day after induction were measured with a digital micrometer (Mitutoyo Corporation). […]

Assay [2] concerns mouse alopecia areata model. The experiment in a line: Mouse alopecia areata model. It is filed as in vivo. The following applies: 10 mg/kg orally once daily for 42 days, Day 49 to Day 90; C3H/HeJ mice. On the procedure:
The effect of the cyclic amine derivative (I) or a pharmacologically acceptable salt thereof in a mouse alopecia areata model was evaluated using increase in the hair loss score as an index of worsening of symptoms. The mouse alopecia areata model was prepared by a partially modified method by Wang et al. (Journal of Investigative Dermatology, 2015, vol. 135, p. 2530-2532).
Female C3H/HeJ mice (CLEA Japan, Inc.) with spontaneous hair loss in 70% or more of the body surface were used as donor mice. The donor mice were euthanized by cervical dislocation, and then the groin, axilla, and auricular lymph nodes were aseptically removed. […]
On Day 49, photographs of the back and the abdomen of the mice were taken under isoflurane anesthesia. The status of hair loss was evaluated by a partially modified method by Alli et al. (Journal of Immunology, 2012, vol. 188, p. 477-486). In other words, the ratio of the area of hair loss site to the body surface area was scored in accordance with the criteria mentioned in Table 4, and regarded as the hair loss score. Specifically, the hair loss score was determined based on the numerical value of the ratio calculated from Formula (4): […]
Grouping was performed using the mouse hair loss score calculated on Day 49 as an index (the hair loss score on Day 49 (mean±standard error): 3.6±0.66). […]

Each structure is given as a SMILES string.

In the case of `CC(=O)N1CCCC[C@@H]1C(=O)Nc1cc(Cl)c2c(c1)CCN2C[C@H]1CC[C@H](C(F)(F)F)CC1` [Example 9, (R)-1-acetyl-N-(7-chloro-1-((trans-4-(trifluoromethyl)cyclo-hexyl)methyl)indolin-5-yl)piperidine-2-carboxamide], in assay [1], the “increase in the ear thickness (change in the ear thickness, 8th day after induction)” value is given as “statistically significantly suppressed”.
`CC(=O)N1CCCC[C@@H]1C(=O)Nc1cc(Cl)c2c(c1)CCCN2Cc1ccc(C(F)(F)F)cc1` [Example 1, (R)-1-acetyl-N-(8-chloro-1-(4-(trifluoromethyl)benzyl)-1,2,3,4-tetrahydroquinolin-6-yl)piperidine-2-carboxamide]: the “increase in the ear thickness (change in the ear thickness, 8th day after induction)” value in assay [1] is reported as “statistically significantly suppressed”.
In the case of `CC(=O)N1CCCC[C@@H]1C(=O)Nc1cc(Cl)c2c(c1)CCN2Cc1ccc(C(F)(F)F)cc1` [Example 4, (R)-1-acetyl-N-(7-chloro-1-(4-(trifluoromethyl)benzyl)indolin-5-yl)piperidine-2-carboxamide], in assay [1], the “increase in the ear thickness (change in the ear thickness, 8th day after induction)” value is recorded as “statistically significantly suppressed”. Besides, the “increase in the hair loss score (Day 91)” value in assay [2] was “suppressed”.

The record behind these values is patent US20200392107A1, “CYCLIC AMINE DERIVATIVE AND MEDICAL USE THEREOF” (Toray Industries, Inc., priority 2018, published 2020).
